Measurements reported in ChEMBL document CHEMBL5209566, “Superclomeleon biosensor-based assay for SLC26A9 using HEK293 SLC26A9 JumpIn OE cells” (2022).

Biological target: T1, Solute carrier family 26 member 9 (Homo sapiens) (UniProt Q7LBE3)
T1 sequence (whole entry): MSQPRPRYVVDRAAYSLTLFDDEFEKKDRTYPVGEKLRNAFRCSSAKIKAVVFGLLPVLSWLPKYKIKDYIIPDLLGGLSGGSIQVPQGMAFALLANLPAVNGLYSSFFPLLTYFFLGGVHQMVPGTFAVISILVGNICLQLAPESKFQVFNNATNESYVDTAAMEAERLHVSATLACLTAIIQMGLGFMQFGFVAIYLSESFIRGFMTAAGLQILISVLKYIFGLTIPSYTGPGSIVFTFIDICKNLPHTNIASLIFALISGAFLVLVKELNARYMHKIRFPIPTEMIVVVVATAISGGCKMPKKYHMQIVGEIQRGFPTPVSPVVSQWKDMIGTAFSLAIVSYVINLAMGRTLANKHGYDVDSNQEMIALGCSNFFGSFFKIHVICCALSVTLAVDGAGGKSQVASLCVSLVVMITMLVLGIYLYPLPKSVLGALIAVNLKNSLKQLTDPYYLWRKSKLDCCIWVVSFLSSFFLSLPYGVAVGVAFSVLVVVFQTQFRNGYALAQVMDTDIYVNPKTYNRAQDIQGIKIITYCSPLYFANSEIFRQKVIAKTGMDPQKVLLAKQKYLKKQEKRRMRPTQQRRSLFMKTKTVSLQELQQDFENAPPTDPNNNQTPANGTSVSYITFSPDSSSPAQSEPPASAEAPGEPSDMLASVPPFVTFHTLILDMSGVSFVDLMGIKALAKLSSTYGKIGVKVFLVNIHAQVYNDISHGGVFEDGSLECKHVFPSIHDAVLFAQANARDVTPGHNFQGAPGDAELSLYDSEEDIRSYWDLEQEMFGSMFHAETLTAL
Assay: Chloride uptake by the Anion Transporter/Exchanger Protein 9 (SLC26A9) as assessed by a Cl- sensitive FRET (Fluorescence Resonance Energy Transfer) sensor (SuperClomeleon) in HEK-293 cells stably transfected with SLC26A9 (PubChem AID: 1794832)
Format: functional, cell-based
Settings: HEK293

| SMILES | Inhibition (500 µM) [%] | proof of principle |
| --- | --- | --- |
| O=C(O)c1cccnc1Nc1cccc(C(F)(F)F)c1 | > 30 |  |
| Cl |  | Substrate. In Comparison To Wild-Type, Cells Expressing Slc26A9 Showed A Specific Transporter Activity, Upon Substrate Addition, Detected As Significantly Higher Sensor Fluorescence Quenching. |
